# Reference: ChEMBL document CHEMBL5233229, “Recent advances in the development of ubiquitin-specific-processing protease 7 (USP7) inhibitors” (Eur J Med Chem, 2020)
# What was measured:
# [1] = biological target: T1, Ubiquitin carboxyl-terminal hydrolase 47 (Homo sapiens, UniProt Q96K76); test: Inhibition of USP47 (unknown origin)
# T1 sequence (Q96K76 whole entry): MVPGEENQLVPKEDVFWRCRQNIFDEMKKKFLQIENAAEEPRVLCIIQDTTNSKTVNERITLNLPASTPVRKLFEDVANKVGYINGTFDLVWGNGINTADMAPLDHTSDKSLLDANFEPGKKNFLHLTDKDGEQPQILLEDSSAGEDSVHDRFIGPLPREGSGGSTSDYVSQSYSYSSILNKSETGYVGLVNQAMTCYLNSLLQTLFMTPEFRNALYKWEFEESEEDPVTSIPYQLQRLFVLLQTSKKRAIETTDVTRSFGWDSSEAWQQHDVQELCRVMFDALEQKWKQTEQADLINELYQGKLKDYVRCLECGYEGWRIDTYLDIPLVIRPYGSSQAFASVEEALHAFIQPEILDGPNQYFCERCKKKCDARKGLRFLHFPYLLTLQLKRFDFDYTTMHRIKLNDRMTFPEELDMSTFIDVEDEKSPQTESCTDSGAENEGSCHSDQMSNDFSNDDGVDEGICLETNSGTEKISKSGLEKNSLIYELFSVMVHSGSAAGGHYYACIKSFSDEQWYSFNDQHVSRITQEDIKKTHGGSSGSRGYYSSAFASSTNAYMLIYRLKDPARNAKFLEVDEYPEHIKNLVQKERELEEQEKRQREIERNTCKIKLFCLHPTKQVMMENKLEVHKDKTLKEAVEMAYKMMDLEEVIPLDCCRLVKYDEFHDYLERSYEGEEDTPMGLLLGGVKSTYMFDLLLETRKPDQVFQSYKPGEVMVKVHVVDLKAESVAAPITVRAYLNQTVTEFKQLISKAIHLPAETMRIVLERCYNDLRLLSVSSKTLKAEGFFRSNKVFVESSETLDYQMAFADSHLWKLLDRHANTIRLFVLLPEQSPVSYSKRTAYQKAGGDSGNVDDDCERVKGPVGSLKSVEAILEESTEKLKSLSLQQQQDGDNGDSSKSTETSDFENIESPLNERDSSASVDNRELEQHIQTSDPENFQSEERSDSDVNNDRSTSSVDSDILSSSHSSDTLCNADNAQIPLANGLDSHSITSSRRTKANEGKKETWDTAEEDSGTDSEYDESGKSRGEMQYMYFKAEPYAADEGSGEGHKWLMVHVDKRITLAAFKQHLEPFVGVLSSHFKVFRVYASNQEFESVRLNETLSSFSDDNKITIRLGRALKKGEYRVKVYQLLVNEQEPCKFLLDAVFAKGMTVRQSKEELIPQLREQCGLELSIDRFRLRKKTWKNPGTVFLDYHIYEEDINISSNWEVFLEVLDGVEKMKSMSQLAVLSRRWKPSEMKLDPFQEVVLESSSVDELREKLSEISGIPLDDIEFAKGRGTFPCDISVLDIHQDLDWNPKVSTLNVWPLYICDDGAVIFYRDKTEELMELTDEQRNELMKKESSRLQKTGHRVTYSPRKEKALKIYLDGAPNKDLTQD
# [2] = biological target: T2, Ubiquitin carboxyl-terminal hydrolase 8 (Homo sapiens, UniProt P40818); test: Inhibition of USP8 (unknown origin)
# T2 sequence (P40818 whole entry): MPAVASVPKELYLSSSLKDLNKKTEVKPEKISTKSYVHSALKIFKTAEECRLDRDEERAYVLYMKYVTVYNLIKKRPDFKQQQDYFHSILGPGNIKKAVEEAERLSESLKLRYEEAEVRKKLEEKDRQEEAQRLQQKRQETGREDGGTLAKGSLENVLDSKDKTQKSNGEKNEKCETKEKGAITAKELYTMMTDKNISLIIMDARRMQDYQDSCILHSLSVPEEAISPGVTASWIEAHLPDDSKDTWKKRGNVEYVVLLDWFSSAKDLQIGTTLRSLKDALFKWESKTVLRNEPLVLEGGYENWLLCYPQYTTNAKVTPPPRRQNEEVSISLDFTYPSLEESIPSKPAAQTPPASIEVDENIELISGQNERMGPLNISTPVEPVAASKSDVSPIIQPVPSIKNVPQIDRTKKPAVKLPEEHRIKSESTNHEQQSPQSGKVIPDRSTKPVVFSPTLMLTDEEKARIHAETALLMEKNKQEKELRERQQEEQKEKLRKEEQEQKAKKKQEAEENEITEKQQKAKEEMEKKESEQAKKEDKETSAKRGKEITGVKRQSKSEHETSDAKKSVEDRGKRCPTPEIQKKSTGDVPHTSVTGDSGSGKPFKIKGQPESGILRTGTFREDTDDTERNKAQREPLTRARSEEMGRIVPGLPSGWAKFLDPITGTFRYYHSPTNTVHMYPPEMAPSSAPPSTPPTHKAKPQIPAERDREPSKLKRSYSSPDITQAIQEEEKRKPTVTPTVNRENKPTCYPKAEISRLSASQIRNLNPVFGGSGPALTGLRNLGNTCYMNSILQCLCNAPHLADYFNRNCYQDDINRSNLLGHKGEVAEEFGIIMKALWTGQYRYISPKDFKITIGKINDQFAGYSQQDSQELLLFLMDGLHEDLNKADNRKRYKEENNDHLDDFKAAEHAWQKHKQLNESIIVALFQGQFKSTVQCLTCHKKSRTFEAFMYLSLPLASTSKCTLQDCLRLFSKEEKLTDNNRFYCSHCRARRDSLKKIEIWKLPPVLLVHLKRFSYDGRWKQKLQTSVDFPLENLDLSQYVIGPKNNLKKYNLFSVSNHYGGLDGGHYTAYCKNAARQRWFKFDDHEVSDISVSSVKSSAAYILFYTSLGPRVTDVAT
# [3] = biological target: T3, Ubiquitin carboxyl-terminal hydrolase 28 (Homo sapiens, UniProt Q96RU2); test: Inhibition of USP28 (unknown origin) using […] as substrate by […] analysis
# T3 sequence (Q96RU2 whole entry): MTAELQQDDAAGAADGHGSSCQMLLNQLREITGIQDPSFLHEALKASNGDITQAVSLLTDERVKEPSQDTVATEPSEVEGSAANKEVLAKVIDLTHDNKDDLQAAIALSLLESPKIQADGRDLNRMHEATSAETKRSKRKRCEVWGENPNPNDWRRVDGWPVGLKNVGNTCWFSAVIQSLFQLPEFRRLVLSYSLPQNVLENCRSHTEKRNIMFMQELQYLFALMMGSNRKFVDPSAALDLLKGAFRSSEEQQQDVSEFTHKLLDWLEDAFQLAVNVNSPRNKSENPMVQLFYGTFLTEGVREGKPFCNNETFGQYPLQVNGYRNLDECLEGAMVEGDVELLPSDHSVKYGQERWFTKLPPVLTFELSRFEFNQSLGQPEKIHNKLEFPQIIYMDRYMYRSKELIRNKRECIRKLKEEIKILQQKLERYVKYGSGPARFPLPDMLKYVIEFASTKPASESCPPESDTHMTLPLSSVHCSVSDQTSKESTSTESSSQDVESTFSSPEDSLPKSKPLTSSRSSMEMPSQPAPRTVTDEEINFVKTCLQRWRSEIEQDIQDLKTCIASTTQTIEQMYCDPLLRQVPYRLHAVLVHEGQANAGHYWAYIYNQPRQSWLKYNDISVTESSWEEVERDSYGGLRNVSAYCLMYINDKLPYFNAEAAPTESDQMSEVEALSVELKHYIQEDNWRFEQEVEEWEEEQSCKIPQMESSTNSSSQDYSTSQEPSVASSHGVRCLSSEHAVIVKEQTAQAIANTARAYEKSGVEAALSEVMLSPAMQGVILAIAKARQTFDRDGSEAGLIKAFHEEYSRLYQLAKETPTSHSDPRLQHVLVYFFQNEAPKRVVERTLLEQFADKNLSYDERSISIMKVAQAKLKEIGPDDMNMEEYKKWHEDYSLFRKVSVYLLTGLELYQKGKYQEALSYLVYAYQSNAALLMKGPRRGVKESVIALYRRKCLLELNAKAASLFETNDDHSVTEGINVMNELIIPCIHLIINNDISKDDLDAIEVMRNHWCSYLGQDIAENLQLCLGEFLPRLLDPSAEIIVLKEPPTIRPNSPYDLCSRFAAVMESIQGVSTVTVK
# [4] = biological target: T4, Ubiquitin carboxyl-terminal hydrolase 25 (Homo sapiens, UniProt Q9UHP3); test: Inhibition of USP25 (unknown origin) using […] as substrate by […] analysis
# T4 sequence (Q9UHP3 whole entry): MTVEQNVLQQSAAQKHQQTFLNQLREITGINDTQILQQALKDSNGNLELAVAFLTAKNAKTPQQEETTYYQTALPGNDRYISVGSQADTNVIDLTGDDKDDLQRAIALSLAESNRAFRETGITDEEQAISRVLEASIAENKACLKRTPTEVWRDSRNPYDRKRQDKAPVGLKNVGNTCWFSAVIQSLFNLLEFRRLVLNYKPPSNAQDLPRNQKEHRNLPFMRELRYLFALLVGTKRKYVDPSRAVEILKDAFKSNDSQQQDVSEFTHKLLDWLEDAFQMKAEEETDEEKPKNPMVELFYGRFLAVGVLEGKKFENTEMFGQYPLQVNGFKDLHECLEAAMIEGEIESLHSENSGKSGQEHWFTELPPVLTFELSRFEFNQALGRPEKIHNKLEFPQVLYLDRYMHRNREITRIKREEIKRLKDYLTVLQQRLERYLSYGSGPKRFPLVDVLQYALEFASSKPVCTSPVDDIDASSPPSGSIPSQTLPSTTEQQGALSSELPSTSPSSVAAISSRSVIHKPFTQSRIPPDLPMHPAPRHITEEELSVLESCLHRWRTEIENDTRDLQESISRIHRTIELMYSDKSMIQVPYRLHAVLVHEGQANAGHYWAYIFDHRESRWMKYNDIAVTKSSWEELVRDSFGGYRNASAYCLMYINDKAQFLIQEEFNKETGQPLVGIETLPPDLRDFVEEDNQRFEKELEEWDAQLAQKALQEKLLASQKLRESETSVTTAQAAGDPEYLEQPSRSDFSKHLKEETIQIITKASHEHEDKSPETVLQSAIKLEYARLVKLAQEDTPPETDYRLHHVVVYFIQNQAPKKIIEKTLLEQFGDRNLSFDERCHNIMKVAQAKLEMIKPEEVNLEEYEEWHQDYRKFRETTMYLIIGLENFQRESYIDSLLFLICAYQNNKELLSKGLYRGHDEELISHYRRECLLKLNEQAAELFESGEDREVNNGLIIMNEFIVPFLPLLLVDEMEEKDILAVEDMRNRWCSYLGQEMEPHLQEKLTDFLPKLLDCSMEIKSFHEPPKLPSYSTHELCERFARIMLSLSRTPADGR
# [5] = biological target: T5, Ubiquitin carboxyl-terminal hydrolase 2 (Homo sapiens, UniProt O75604); test: Inhibition of human USP2 (258 to 605 residues) catalytic domain by fluorescence based assay
# T5 sequence (O75604 whole entry): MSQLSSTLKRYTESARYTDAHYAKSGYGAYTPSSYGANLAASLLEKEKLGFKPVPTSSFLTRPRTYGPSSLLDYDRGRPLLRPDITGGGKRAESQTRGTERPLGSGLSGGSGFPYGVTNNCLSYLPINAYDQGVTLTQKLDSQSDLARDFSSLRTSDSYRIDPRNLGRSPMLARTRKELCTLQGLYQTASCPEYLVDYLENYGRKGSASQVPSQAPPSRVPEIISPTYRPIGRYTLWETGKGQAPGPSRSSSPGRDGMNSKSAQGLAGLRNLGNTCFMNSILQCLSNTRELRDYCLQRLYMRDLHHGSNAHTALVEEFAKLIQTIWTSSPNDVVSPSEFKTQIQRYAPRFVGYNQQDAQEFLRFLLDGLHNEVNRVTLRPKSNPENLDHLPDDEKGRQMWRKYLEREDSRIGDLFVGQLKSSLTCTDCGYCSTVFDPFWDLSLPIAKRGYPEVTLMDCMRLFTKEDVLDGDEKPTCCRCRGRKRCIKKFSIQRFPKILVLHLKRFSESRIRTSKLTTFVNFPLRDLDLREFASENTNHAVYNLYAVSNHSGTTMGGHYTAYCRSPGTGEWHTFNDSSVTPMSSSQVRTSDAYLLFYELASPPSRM
# [6] = biological target: T6, Ubiquitin carboxyl-terminal hydrolase 2 (Homo sapiens) (UniProt O75604); test: Inhibition of human USP2 (258 to 605 residues) catalytic domain assessed as inhibition constant by fluorescence based assay
# T6 sequence (whole entry): T5 sequence (O75604 whole entry)
# [7] = biological target: T7, Ubiquitin carboxyl-terminal hydrolase 7 (Homo sapiens, UniProt Q93009); test: Inhibition of human USP7 using ubiquitin-Rho110 as substrate incubated for 1 hrs
# [8] = biological target: T7, Ubiquitin carboxyl-terminal hydrolase 7; test: Inhibition of human USP7 using Ub-AMC as substrate
# [9] = biological target: T7, Ubiquitin carboxyl-terminal hydrolase 7; test: Inhibition of USP7 (unknown origin)
# T7 sequence (Q93009 whole entry): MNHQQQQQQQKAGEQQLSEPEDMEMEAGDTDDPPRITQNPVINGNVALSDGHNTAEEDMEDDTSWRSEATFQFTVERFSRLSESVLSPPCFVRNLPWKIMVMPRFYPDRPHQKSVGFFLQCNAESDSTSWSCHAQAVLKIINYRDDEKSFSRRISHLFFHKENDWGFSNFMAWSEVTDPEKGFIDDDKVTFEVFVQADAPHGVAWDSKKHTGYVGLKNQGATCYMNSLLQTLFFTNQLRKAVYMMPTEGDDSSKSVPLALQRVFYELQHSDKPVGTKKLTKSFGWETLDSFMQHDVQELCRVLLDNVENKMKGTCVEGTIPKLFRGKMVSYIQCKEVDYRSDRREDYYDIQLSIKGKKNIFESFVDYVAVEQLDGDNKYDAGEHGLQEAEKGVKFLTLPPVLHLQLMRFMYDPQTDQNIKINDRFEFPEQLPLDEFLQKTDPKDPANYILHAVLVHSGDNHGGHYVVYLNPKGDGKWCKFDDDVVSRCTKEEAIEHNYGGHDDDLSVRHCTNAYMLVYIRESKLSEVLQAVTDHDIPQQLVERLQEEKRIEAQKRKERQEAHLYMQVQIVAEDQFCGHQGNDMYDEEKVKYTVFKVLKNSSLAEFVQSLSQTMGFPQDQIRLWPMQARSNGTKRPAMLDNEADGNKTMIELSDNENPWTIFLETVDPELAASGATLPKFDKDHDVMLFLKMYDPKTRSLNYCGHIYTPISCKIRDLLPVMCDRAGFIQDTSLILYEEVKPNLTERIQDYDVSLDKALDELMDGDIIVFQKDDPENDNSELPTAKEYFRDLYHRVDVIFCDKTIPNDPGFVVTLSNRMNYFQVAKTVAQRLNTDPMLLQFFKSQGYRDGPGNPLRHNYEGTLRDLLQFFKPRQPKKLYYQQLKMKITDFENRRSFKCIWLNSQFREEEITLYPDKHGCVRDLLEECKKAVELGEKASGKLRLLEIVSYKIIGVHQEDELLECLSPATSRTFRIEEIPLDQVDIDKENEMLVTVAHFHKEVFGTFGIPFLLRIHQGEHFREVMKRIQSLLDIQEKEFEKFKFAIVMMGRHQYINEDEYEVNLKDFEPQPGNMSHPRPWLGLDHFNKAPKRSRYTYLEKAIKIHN
structure (smiles),measurement,setting,value
CO/C(O)=C(\C#N)c1nc2c(nc1C#N)C(=O)c1ccccc1-2,IC50,[1],> 100 µM
same,IC50,[2],> 100 µM
OCCNCc1cc(Br)ccc1OCc1ccccc1,IC50,[3],59.6 µM
same,IC50,[4],52.5 µM
OCCNCc1cc(Br)ccc1OCc1cc(F)c(F)cc1F,IC50,[3],2 µM
Nc1nc2nc[nH]c2c(=S)[nH]1 [THIOGUANINE],IC50,[5],42 µM
Nc1nc2[nH]cnc2c(=S)[nH]1,Kis,[6],24.6 µM
OCCNCc1cc(Br)ccc1OCc1cccc(OC(F)(F)F)c1,IC50,[3],1.1 µM
same,IC50,[4],0.88 µM
CC(=O)Nc1cccc(-c2cnc(N)c(-c3ccc(O)cc3)c2C)c1,IC50,[7],42 µM
Sc1ncnc2nc[nH]c12 [MERCAPTOPURINE ANHYDROUS],IC50,[5],> 100 µM
N#Cc1nc2c(nc1C#N)-c1ccc(Cl)cc1C2=O,IC50,[8],0.4 µM
same,IC50,[1],0.4 µM
same,IC50,[2],0.96 µM
CC(=O)c1cc([N+](=O)[O-])c(Sc2c(Cl)cncc2Cl)s1,IC50,[9],2 µM
CCc1c(-c2cccc(NC(C)=O)c2)cnc(N)c1-c1cccs1,IC50,[7],> 63.3 µM
